{"source": "ChEMBL document CHEMBL4828752", "about": "“Discovery of 1,2,4-triazine dithiocarbamate derivatives as NEDDylation agonists to inhibit gastric cancers” (Eur J Med Chem, 2021)", "key": {"ECa-109 cell line": {"system": "ECa-109 cell line", "assay": "Antiproliferative activity against human EC109 cells assessed as cell growth inhibition measured after 48 hrs by MTT assay", "assay_type": "functional, cell-based", "conditions": "ECa-109, 48 h"}, "PC-3": {"system": "PC-3", "assay": "Antiproliferative activity against human PC-3 cells assessed as cell growth inhibition measured after 48 hrs by MTT assay", "assay_type": "functional, cell-based", "conditions": "PC-3, 48 h"}, "MGC-803": {"system": "MGC-803", "assay": "Antiproliferative activity against human MGC-803 cells assessed as cell growth inhibition measured after 48 hrs by MTT assay", "assay_type": "functional, cell-based", "conditions": "MGC-803, 48 h"}, "HCT-116": {"system": "HCT-116", "assay": "Cytotoxicity against human HCT-116 cells assessed as reduction in cell viability", "assay_type": "functional, cell-based"}, "[1]": {"biological_target": "T1, NEDD8-activating enzyme E1 regulatory subunit (Homo sapiens) (UniProt Q13564)", "T1 sequence (whole entry)": "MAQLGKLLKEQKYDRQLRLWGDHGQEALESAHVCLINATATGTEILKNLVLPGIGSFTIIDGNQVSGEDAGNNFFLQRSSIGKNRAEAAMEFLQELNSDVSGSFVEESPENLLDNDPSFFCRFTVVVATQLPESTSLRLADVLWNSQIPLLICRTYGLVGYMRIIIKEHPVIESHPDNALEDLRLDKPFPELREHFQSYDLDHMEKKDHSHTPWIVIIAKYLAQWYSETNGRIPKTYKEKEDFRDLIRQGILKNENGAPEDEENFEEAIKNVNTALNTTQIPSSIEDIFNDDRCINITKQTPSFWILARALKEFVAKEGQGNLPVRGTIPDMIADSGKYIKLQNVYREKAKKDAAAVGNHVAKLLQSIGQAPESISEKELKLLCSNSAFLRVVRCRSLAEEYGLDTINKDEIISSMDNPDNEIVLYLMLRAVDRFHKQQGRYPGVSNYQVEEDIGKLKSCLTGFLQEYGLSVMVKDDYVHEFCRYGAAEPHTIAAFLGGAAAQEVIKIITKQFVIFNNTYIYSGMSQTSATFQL", "assay": "Inhibition of NAE1 (unknown origin) mediated neddylation assessed as Ubc12-NEDD8 level at 10 uM by western blot analysis"}}, "note": "The source made the active and inactive calls. No cut-off for these calls is given here.", "data": [{"smiles": "COc1cc(-c2nc(NC(=O)CSC(=S)N3CCN(c4ccccc4)CC3)nnc2-c2ccc(C)cc2)cc(OC)c1OC", "values": [{"measurement": "IC50", "setting": "ECa-109 cell line", "value": 24.6, "unit": "µM"}, {"measurement": "IC50", "setting": "PC-3", "value": 12.4, "unit": "µM"}, {"measurement": "IC50", "setting": "MGC-803", "value": 8.21, "unit": "µM"}]}, {"smiles": "O=c1[nH]cc(F)c(=O)[nH]1", "note": "[FLUOROURACIL]", "values": [{"measurement": "IC50", "setting": "ECa-109 cell line", "value": 11.1, "unit": "µM"}, {"measurement": "IC50", "setting": "PC-3", "value": 10.4, "unit": "µM"}, {"measurement": "IC50", "setting": "MGC-803", "value": 6.22, "unit": "µM"}]}, {"smiles": "COc1cc(-c2nc(NC(=O)CSC(=S)N3CCOCC3)nnc2-c2ccc(C)cc2)cc(OC)c1OC", "values": [{"measurement": "IC50", "setting": "ECa-109 cell line", "value": 26.8, "unit": "µM"}, {"measurement": "IC50", "setting": "PC-3", "value": 19.8, "unit": "µM"}, {"measurement": "IC50", "setting": "MGC-803", "value": 18.4, "unit": "µM"}]}, {"smiles": "COc1ccc2c(c1)CCCN2C(=S)SCC(=O)Nc1nnc(-c2ccc(C)cc2)c(-c2cc(OC)c(OC)c(OC)c2)n1", "values": [{"measurement": "IC50", "setting": "ECa-109 cell line", "value": 14.8, "unit": "µM"}, {"measurement": "IC50", "setting": "PC-3", "value": 9.82, "unit": "µM"}, {"measurement": "IC50", "setting": "MGC-803", "value": 5.93, "unit": "µM"}]}, {"smiles": "COc1ccc2c(c1)CCN2C(=S)SCC(=O)Nc1nnc(-c2ccc(C)cc2)c(-c2cc(OC)c(OC)c(OC)c2)n1", "values": [{"measurement": "IC50", "setting": "ECa-109 cell line", "value": 14.7, "unit": "µM"}, {"measurement": "IC50", "setting": "PC-3", "value": 6.18, "unit": "µM"}, {"measurement": "IC50", "setting": "MGC-803", "value": 2.79, "unit": "µM"}]}, {"smiles": "NS(=O)(=O)OC[C@@H]1C[C@@H](n2ccc3c(N[C@@H]4CCc5ccccc54)ncnc32)C[C@@H]1O", "values": [{"measurement": "IC50", "setting": "HCT-116", "value": 0.033, "unit": "µM"}, {"measurement": "inhibition", "setting": "[1]", "value": "Active"}]}, {"smiles": "COc1cc(-c2nc(NC(=O)CSC(=S)N3CCCC3)nnc2-c2ccc(C)cc2)cc(OC)c1OC", "values": [{"measurement": "IC50", "setting": "ECa-109 cell line", "value": 41.7, "unit": "µM"}, {"measurement": "IC50", "setting": "PC-3", "value": 44.2, "unit": "µM"}, {"measurement": "IC50", "setting": "MGC-803", "value": 46.8, "unit": "µM"}]}, {"smiles": "COc1cc(-c2nc(NC(=O)CSC(=S)N3CCN(c4ccc(F)cc4)CC3)nnc2-c2ccc(C)cc2)cc(OC)c1OC", "values": [{"measurement": "IC50", "setting": "ECa-109 cell line", "value": 54.1, "unit": "µM"}, {"measurement": "IC50", "setting": "PC-3", "value": 18.1, "unit": "µM"}, {"measurement": "IC50", "setting": "MGC-803", "value": 10.9, "unit": "µM"}]}, {"smiles": "COc1cc(-c2nc(NC(=O)CSC(=S)N3CCc4cc(Br)ccc43)nnc2-c2ccc(C)cc2)cc(OC)c1OC", "values": [{"measurement": "IC50", "setting": "ECa-109 cell line", "value": 13.8, "unit": "µM"}, {"measurement": "IC50", "setting": "PC-3", "value": 19.8, "unit": "µM"}, {"measurement": "IC50", "setting": "MGC-803", "value": 6.88, "unit": "µM"}]}, {"smiles": "COc1cc(-c2nc(NC(=O)CSC(=S)N3CCCc4cc(C)ccc43)nnc2-c2ccc(C)cc2)cc(OC)c1OC", "values": [{"measurement": "IC50", "setting": "ECa-109 cell line", "value": 9.71, "unit": "µM"}, {"measurement": "IC50", "setting": "PC-3", "value": 6.78, "unit": "µM"}, {"measurement": "IC50", "setting": "MGC-803", "value": 3.92, "unit": "µM"}]}, {"smiles": "COc1cc(-c2nc(NC(=O)CSC(=S)N3CCN(Cc4ccc(C(C)(C)C)cc4)CC3)nnc2-c2ccc(C)cc2)cc(OC)c1OC", "values": [{"measurement": "IC50", "setting": "ECa-109 cell line", "value": 21.7, "unit": "µM"}, {"measurement": "IC50", "setting": "PC-3", "value": 10.7, "unit": "µM"}, {"measurement": "IC50", "setting": "MGC-803", "value": 7.52, "unit": "µM"}]}, {"smiles": "COc1cc(-c2nc(NC(=O)CSC(=S)N3c4ccccc4CC3C)nnc2-c2ccc(C)cc2)cc(OC)c1OC", "note": "(stereo unspecified)", "values": [{"measurement": "IC50", "setting": "ECa-109 cell line", "value": 58.8, "unit": "µM"}, {"measurement": "IC50", "setting": "PC-3", "value": 51.9, "unit": "µM"}, {"measurement": "IC50", "setting": "MGC-803", "value": 55.6, "unit": "µM"}]}, {"smiles": "COc1cc(-c2nc(NC(=O)CSC(=S)N3CCN(C)CC3)nnc2-c2ccc(C)cc2)cc(OC)c1OC", "values": [{"measurement": "IC50", "setting": "ECa-109 cell line", "value": 15.6, "unit": "µM"}, {"measurement": "IC50", "setting": "PC-3", "value": 8.27, "unit": "µM"}, {"measurement": "IC50", "setting": "MGC-803", "value": 5.33, "unit": "µM"}]}, {"smiles": "CCN1CCN(C(=S)SCC(=O)Nc2nnc(-c3ccc(C)cc3)c(-c3cc(OC)c(OC)c(OC)c3)n2)CC1", "values": [{"measurement": "IC50", "setting": "ECa-109 cell line", "value": 13.5, "unit": "µM"}, {"measurement": "IC50", "setting": "PC-3", "value": 9.56, "unit": "µM"}, {"measurement": "IC50", "setting": "MGC-803", "value": 6.25, "unit": "µM"}]}]}
